One block for each compound: values may come before it.
System: 475296-252-R-J1-PDC spheroid viability
Experiment: Anticancer human tumor 475296-252-R-J1-PDC patient-derived rectal carcinoma cell line growth inhibition [PI3K]
Conditions: spheroids with HUVEC and MSC; for IC50: curve of first compound; for viability, T/C: stronger effect = lower value
Summary of the method: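 High-throughput combination screen: PI3K inhibitors crossed with targeted small molecules on complex spheroids of tumor cells, HUVEC and MSCs at 37 degrees C, 5% CO2. Top concentration was at or near clinical Cmax (otherwise 10 microM), with half-log decrements.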

[1] = second compound 0.00316 µM, first compound 0.0316 µM
[2] = second compound 0.00316 µM, first compound 0.1 µM
[3] = second compound 0.00316 µM, first compound 0.316 µM
[4] = second compound 0.00316 µM, first compound 1 µM
[5] = second compound 0.00316 µM, first compound 3.16 µM
[6] = second compound 0.00316 µM, first compound 10 µM
[7] = second compound 0.01 µM, first compound 0.0316 µM
[8] = second compound 0.01 µM, first compound 0.1 µM
[9] = second compound 0.01 µM, first compound 0.316 µM
[10] = second compound 0.01 µM, first compound 1 µM
[11] = second compound 0.01 µM, first compound 3.16 µM
[12] = second compound 0.01 µM, first compound 10 µM
[13] = second compound 0.0316 µM, first compound 0.0316 µM
[14] = second compound 0.0316 µM, first compound 0.1 µM
[15] = second compound 0.0316 µM, first compound 0.316 µM
[16] = second compound 0.0316 µM, first compound 1 µM
[17] = second compound 0.0316 µM, first compound 3.16 µM
[18] = second compound 0.0316 µM, first compound 10 µM
[19] = second compound 0.1 µM, first compound 0.0316 µM
[20] = second compound 0.1 µM, first compound 0.1 µM
[21] = second compound 0.1 µM, first compound 0.316 µM
[22] = second compound 0.1 µM, first compound 1 µM
[23] = second compound 0.1 µM, first compound 3.16 µM
[24] = second compound 0.1 µM, first compound 10 µM
[25] = second compound 0.316 µM, first compound 0.0316 µM
[26] = second compound 0.316 µM, first compound 0.1 µM
[27] = second compound 0.316 µM, first compound 0.316 µM
[28] = second compound 0.316 µM, first compound 1 µM
[29] = second compound 0.316 µM, first compound 3.16 µM
[30] = second compound 0.316 µM, first compound 10 µM
[31] = second compound 1 µM, first compound 0.0316 µM
[32] = second compound 1 µM, first compound 0.1 µM
[33] = second compound 1 µM, first compound 0.316 µM
[34] = second compound 1 µM, first compound 1 µM
[35] = second compound 1 µM, first compound 3.16 µM
[36] = second compound 1 µM, first compound 10 µM
[37] = second compound 0.00316 µM, first compound 0.00316 µM
[38] = second compound 0.00316 µM, first compound 0.01 µM
[39] = second compound 0.01 µM, first compound 0.00316 µM
[40] = second compound 0.01 µM, first compound 0.01 µM
[41] = second compound 0.0316 µM, first compound 0.00316 µM
[42] = second compound 0.0316 µM, first compound 0.01 µM
[43] = second compound 0.1 µM, first compound 0.00316 µM
[44] = second compound 0.1 µM, first compound 0.01 µM
[45] = second compound 0.316 µM, first compound 0.00316 µM
[46] = second compound 0.316 µM, first compound 0.01 µM
[47] = second compound 1 µM, first compound 0.00316 µM
[48] = second compound 1 µM, first compound 0.01 µM
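Note: spheroids exposed to agents for seven days before readout.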

IC50 (second compound 0.00316 µM): > 10 µM
IC50 (second compound 0.01 µM): > 10 µM
IC50 (second compound 0.0316 µM): > 10 µM
IC50 (second compound 0.1 µM): > 10 µM
IC50 (second compound 0.316 µM): > 10 µM
IC50 (second compound 1 µM): > 10 µM
SMILES: CC(C)NCC(C(=O)N1CCN(c2ncnc3c2C(C)CC3O)CC1)c1ccc(Cl)cc1 (stereo not drawn) + CC(Nc1ccc2c(c1)OCCn1cc(N3C(=O)OCC3C(F)F)nc1-2)C(N)=O
viability, T/C [1]: 85.7%
viability, T/C [2]: 86.5%
viability, T/C [3]: 95.3%
viability, T/C [4]: 75.7%
viability, T/C [5]: 67.6%
viability, T/C [6]: 59.3%
viability, T/C [7]: 82.7%
viability, T/C [8]: 78.5%
viability, T/C [9]: 88.3%
viability, T/C [10]: 67.6%
viability, T/C [11]: 65.3%
viability, T/C [12]: 67.5%
viability, T/C [13]: 92.7%
viability, T/C [14]: 94.3%
viability, T/C [15]: 91.4%
viability, T/C [16]: 95.4%
viability, T/C [17]: 63.5%
viability, T/C [18]: 62.4%
viability, T/C [19]: 84.2%
viability, T/C [20]: 86.4%
viability, T/C [21]: 90.5%
viability, T/C [22]: 92.5%
viability, T/C [23]: 78.4%
viability, T/C [24]: 57.8%
viability, T/C [25]: 84.9%
viability, T/C [26]: 80%
viability, T/C [27]: 84.9%
viability, T/C [28]: 82.6%
viability, T/C [29]: 87.4%
viability, T/C [30]: 66.2%
viability, T/C [31]: 93.5%
viability, T/C [32]: 86.2%
viability, T/C [33]: 83.4%
viability, T/C [34]: 77.8%
viability, T/C [35]: 77%
viability, T/C [36]: 67.8%

IC50 (second compound 0.00316 µM): > 1 µM
IC50 (second compound 0.01 µM): > 1 µM
IC50 (second compound 0.0316 µM): > 1 µM
IC50 (second compound 0.1 µM): > 1 µM
IC50 (second compound 0.316 µM): > 1 µM
IC50 (second compound 1 µM): > 1 µM
SMILES: CCN1CCN(Cc2ccc(Nc3ncc(F)c(-c4cc(F)c5nc(C)n(C(C)C)c5c4)n3)nc2)CC1 + CC(Nc1ccc2c(c1)OCCn1cc(N3C(=O)OCC3C(F)F)nc1-2)C(N)=O
viability, T/C [37]: 97.2%
viability, T/C [38]: 82.2%
viability, T/C [1]: 94%
viability, T/C [2]: 86.2%
viability, T/C [3]: 101%
viability, T/C [4]: 89.3%
viability, T/C [39]: 94.1%
viability, T/C [40]: 87.8%
viability, T/C [7]: 95.6%
viability, T/C [8]: 85.1%
viability, T/C [9]: 89.5%
viability, T/C [10]: 87.9%
viability, T/C [41]: 95.3%
viability, T/C [42]: 92.3%
viability, T/C [13]: 86.7%
viability, T/C [14]: 99.3%
viability, T/C [15]: 87.6%
viability, T/C [16]: 81.8%
viability, T/C [43]: 81.3%
viability, T/C [44]: 111%
viability, T/C [19]: 86.6%
viability, T/C [20]: 86%
viability, T/C [21]: 94.3%
viability, T/C [22]: 71.8%
viability, T/C [45]: 85%
viability, T/C [46]: 96.1%
viability, T/C [25]: 90.6%
viability, T/C [26]: 86.9%
viability, T/C [27]: 85%
viability, T/C [28]: 71.2%
viability, T/C [47]: 83.3%
viability, T/C [48]: 75.5%
viability, T/C [31]: 80.5%
viability, T/C [32]: 76.9%
viability, T/C [33]: 79.1%
viability, T/C [34]: 64.2%

IC50 (second compound 0.00316 µM): > 10 µM
IC50 (second compound 0.01 µM): > 10 µM
IC50 (second compound 0.0316 µM): > 10 µM
IC50 (second compound 0.1 µM): > 10 µM
IC50 (second compound 0.316 µM): > 10 µM
IC50 (second compound 1 µM): 5.46 µM
SMILES: Cn1ncc(Cl)c1-c1cc(C(=O)NC(CN)Cc2cccc(F)c2)sc1Cl (stereo not drawn) + CC(Nc1ccc2c(c1)OCCn1cc(N3C(=O)OCC3C(F)F)nc1-2)C(N)=O
viability, T/C [1]: 87.7%
viability, T/C [2]: 68.7%
viability, T/C [3]: 76.2%
viability, T/C [4]: 63.4%
viability, T/C [5]: 65%
viability, T/C [6]: 67.6%
viability, T/C [7]: 105%
viability, T/C [8]: 78.6%
viability, T/C [9]: 74.1%
viability, T/C [10]: 73%
viability, T/C [11]: 73.8%
viability, T/C [12]: 70.5%
viability, T/C [13]: 92.6%
viability, T/C [14]: 88.1%
viability, T/C [15]: 63.7%
viability, T/C [16]: 67.4%
viability, T/C [17]: 52.8%
viability, T/C [18]: 60.5%
viability, T/C [19]: 90.7%
viability, T/C [20]: 104%
viability, T/C [21]: 86.1%
viability, T/C [22]: 69.3%
viability, T/C [23]: 59.4%
viability, T/C [24]: 52.9%
viability, T/C [25]: 90.7%
viability, T/C [26]: 94.3%
viability, T/C [27]: 85.7%
viability, T/C [28]: 69.5%
viability, T/C [29]: 72.8%
viability, T/C [30]: 51.5%
viability, T/C [31]: 92.3%
viability, T/C [32]: 79%
viability, T/C [33]: 84.1%
viability, T/C [34]: 76.1%
viability, T/C [35]: 62%
viability, T/C [36]: 36.6%

IC50 (second compound 0.00316 µM): > 0.1 µM
IC50 (second compound 0.01 µM): > 0.1 µM
IC50 (second compound 0.0316 µM): > 0.1 µM
IC50 (second compound 0.1 µM): > 0.1 µM
IC50 (second compound 0.316 µM): > 0.1 µM
IC50 (second compound 1 µM): > 0.1 µM
SMILES: Cn1ncnc1[C@H]1c2n[nH]c(=O)c3cc(F)cc(c23)N[C@@H]1c1ccc(F)cc1 + CC(Nc1ccc2c(c1)OCCn1cc(N3C(=O)OCC3C(F)F)nc1-2)C(N)=O
viability, T/C (second compound 0.00316 µM, first compound 0.000316 µM): 88.1%
viability, T/C (second compound 0.00316 µM, first compound 0.001 µM): 84.3%
viability, T/C [37]: 94.8%
viability, T/C [38]: 93.2%
viability, T/C [1]: 97.2%
viability, T/C [2]: 90.1%
viability, T/C (second compound 0.01 µM, first compound 0.000316 µM): 98.4%
viability, T/C (second compound 0.01 µM, first compound 0.001 µM): 82.9%
viability, T/C [39]: 89.2%
viability, T/C [40]: 95.1%
viability, T/C [7]: 92.8%
viability, T/C [8]: 92%
viability, T/C (second compound 0.0316 µM, first compound 0.000316 µM): 86.1%
viability, T/C (second compound 0.0316 µM, first compound 0.001 µM): 104%
viability, T/C [41]: 88.8%
viability, T/C [42]: 87.4%
viability, T/C [13]: 88%
viability, T/C [14]: 96.6%
viability, T/C (second compound 0.1 µM, first compound 0.000316 µM): 92.4%
viability, T/C (second compound 0.1 µM, first compound 0.001 µM): 101%
viability, T/C [43]: 93.6%
viability, T/C [44]: 92.6%
viability, T/C [19]: 89.7%
viability, T/C [20]: 97.9%
viability, T/C (second compound 0.316 µM, first compound 0.000316 µM): 81.8%
viability, T/C (second compound 0.316 µM, first compound 0.001 µM): 83.4%
viability, T/C [45]: 86.1%
viability, T/C [46]: 84.6%
viability, T/C [25]: 89.8%
viability, T/C [26]: 81.6%
viability, T/C (second compound 1 µM, first compound 0.000316 µM): 84.5%
viability, T/C (second compound 1 µM, first compound 0.001 µM): 71.6%
viability, T/C [47]: 87%
viability, T/C [48]: 89.1%
viability, T/C [31]: 85%
viability, T/C [32]: 79.6%

From PubChem BioAssay AID1963980 (Molecular Pharmacology Branch, DTP, NCI, 2024)
